Measurements: PubChem BioAssay AID256 (DTP/NCI, 2004)
Several values for one entry are separate records, joined by “and”; a condition that tells them apart may be missing. Identical values can stand only once. Toxic doses and inconclusive results are not listed. How the source made its calls: active means survival T/C of 150% or more; inactive means T/C below 125% in these data.

System: CD2F1 mice, L1210 leukemia ip, survival T/C
Experiment: NCI In Vivo Anticancer Drug Screen. Data for tumor model L1210 Leukemia (intraperitoneal) in CD2F1 (CDF1) mice
Details: higher = longer survival
In short: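 Mice carrying a transplanted tumor received test compound or vehicle alone. The value is the measurement in the treated group divided by that in the vehicle-treated control group.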

[1] = endpoint: mean survival time, dose: 100.0 mg/kg/injection, schedule: Q01DX009 (ip), vehicle: saline with Tween-80
[2] = endpoint: mean survival time, dose: 200.0 mg/kg/injection, schedule: Q01DX009 (ip), vehicle: saline with Tween-80
[3] = endpoint: mean survival time, dose: 400.0 mg/kg/injection, schedule: Q01DX009 (ip), vehicle: saline with Tween-80
[4] = endpoint: mean survival time, dose: 100.0 mg/kg/injection, schedule: Q04DX003 (ip), vehicle: Klucel (hydroxypropylcellulose) (HPC)
[5] = endpoint: mean survival time, dose: 100.0 mg/kg/injection, schedule: Q04DX003 (ip), vehicle: saline with Tween-80
[6] = endpoint: mean survival time, dose: 200.0 mg/kg/injection, schedule: Q04DX003 (ip), vehicle: saline with Tween-80
[7] = endpoint: mean survival time, dose: 400.0 mg/kg/injection, schedule: Q04DX003 (ip), vehicle: saline with Tween-80
[8] = endpoint: mean survival time, dose: 100.0 mg/kg/injection, schedule: Q04DX003 (ip), vehicle: saline
[9] = endpoint: mean survival time, dose: 200.0 mg/kg/injection, schedule: Q04DX003 (ip), vehicle: saline
[10] = endpoint: mean survival time, dose: 400.0 mg/kg/injection, schedule: Q04DX003 (ip), vehicle: saline
[11] = endpoint: mean survival time, dose: 200.0 mg/kg/injection, schedule: Q04DX003 (ip), vehicle: Klucel (hydroxypropylcellulose) (HPC)
[12] = endpoint: mean survival time, dose: 400.0 mg/kg/injection, schedule: Q04DX003 (ip), vehicle: Klucel (hydroxypropylcellulose) (HPC)
[13] = endpoint: mean survival time, dose: 200.0 mg/kg/injection, schedule: Q01DX001 (ip), vehicle: saline with Tween-80

Measured: T/C

CCCCCCCCCCCCCC(CCCC)CCCCCCCC (stereo not drawn)
inactive: endpoint: mean survival time, dose: 100.0 mg/kg/injection, schedule: Q01DX001 (ip), vehicle: saline sonified 107 % of control | endpoint: mean survival time, dose: 200.0 mg/kg/injection, schedule: Q01DX001 (ip), vehicle: saline sonified 95 % of control | endpoint: mean survival time, dose: 400.0 mg/kg/injection, schedule: Q01DX001 (ip), vehicle: saline sonified 102 % of control

CC(=O)c1ccc(NCN2C(=O)c3ccccc3C2=O)cc1
inactive: [1] 96 % of control | [2] 98 % of control | [3] 98 % of control

CC1CCc2ccccc2N1CCN (stereo not drawn)
inactive: [4] 95 % of control

COC(=O)C1(C)CCCC2(C)C1CCC1(O)C2CC2OC2(C(C)C)C1O (stereo not drawn)
inactive: [1] 102 % of control | [5] 97 % of control | [2] 96 % of control | [6] 93 % of control | [3] 98 % of control | [7] 87 % of control

N=Cc1c(O)n(C2CCCCC2)c(=O)n(C2CCCCC2)c1=O
inactive: [1] 105 % of control | [5] 95 % of control | [2] 100 % of control | [6] 96 % of control | [3] 107 % of control | [7] 96 % of control

CN(Cc1ccccc1)N=Nc1ccccc1
inactive: endpoint: mean survival time, dose: 18.75 mg/kg/injection, schedule: Q01DX009 (ip), vehicle: Klucel (hydroxypropylcellulose) (HPC) 103 % of control | endpoint: mean survival time, dose: 37.5 mg/kg/injection, schedule: Q01DX009 (ip), vehicle: Klucel (hydroxypropylcellulose) (HPC) 107 % of control | endpoint: mean survival time, dose: 75.0 mg/kg/injection, schedule: Q01DX001 (ip), vehicle: saline 108 % of control | endpoint: mean survival time, dose: 75.0 mg/kg/injection, schedule: Q01DX009 (ip), vehicle: Klucel (hydroxypropylcellulose) (HPC) 113 % of control | endpoint: mean survival time, dose: 150.0 mg/kg/injection, schedule: Q01DX001 (ip), vehicle: saline 108 % of control | endpoint: mean survival time, dose: 150.0 mg/kg/injection, schedule: Q01DX009 (ip), vehicle: Klucel (hydroxypropylcellulose) (HPC) 119 % of control | endpoint: mean survival time, dose: 300.0 mg/kg/injection, schedule: Q01DX001 (ip), vehicle: saline 111 % of control

O=[N+]([O-])c1cccc(/C=C/C=C/c2cccc(S(=O)(=O)F)c2)c1
inactive: [1] 100 % of control | [5] 93 % of control | [2] 93 % of control | [6] 96 % of control | [3] 95 % of control | [7] 90 % of control

CCCNC(=O)Oc1ccc(C(=O)OCC)cc1
inactive: [8] 97 % of control | [9] 101 % of control | [10] 106 % of control

NCC(O)c1ccc(O)c(O)c1 (stereo not drawn)
inactive: endpoint: mean survival time, dose: 0.5 mg/kg/injection, schedule: Q01DX009 (ip), vehicle: saline 98 % of control | endpoint: mean survival time, dose: 0.75 mg/kg/injection, schedule: Q01DX001 (ip), vehicle: saline 106 % of control | endpoint: mean survival time, dose: 1.0 mg/kg/injection, schedule: Q01DX009 (ip), vehicle: saline 109 % of control | endpoint: mean survival time, dose: 1.5 mg/kg/injection, schedule: Q01DX001 (ip), vehicle: saline 98 % of control | endpoint: mean survival time, dose: 2.0 mg/kg/injection, schedule: Q01DX009 (ip), vehicle: saline 98 % of control | endpoint: mean survival time, dose: 3.0 mg/kg/injection, schedule: Q01DX001 (ip), vehicle: saline 101 % of control | endpoint: mean survival time, dose: 4.0 mg/kg/injection, schedule: Q01DX009 (ip), vehicle: saline 113 % of control | endpoint: mean survival time, dose: 6.0 mg/kg/injection, schedule: Q01DX001 (ip), vehicle: saline 104 % of control | endpoint: mean survival time, dose: 8.0 mg/kg/injection, schedule: Q01DX009 (ip), vehicle: saline 100 % of control | endpoint: mean survival time, dose: 12.0 mg/kg/injection, schedule: Q01DX001 (ip), vehicle: saline 100 % of control

Cc1ccc(NC(=O)N(C)N=O)cc1
inactive: endpoint: mean survival time, dose: 89.0 mg/kg/injection, schedule: Q01DX001 (ip), vehicle: other 89 % of control | endpoint: mean survival time, dose: 133.0 mg/kg/injection, schedule: Q01DX001 (ip), vehicle: other 87 % of control | endpoint: mean survival time, dose: 200.0 mg/kg/injection, schedule: Q01DX001 (ip), vehicle: other 89 % of control | endpoint: mean survival time, dose: 300.0 mg/kg/injection, schedule: Q01DX001 (ip), vehicle: other 93 % of control

O=C(C(=C(c1ccccc1)c1ccccc1)N1CCCCC1)c1ccccc1
inactive: [4] 94 % of control | [11] 96 % of control | [12] 94 % of control

O=C(C[n+]1cccc(C(=O)Nc2ccccc2)c1)NCc1ccccc1
inactive: [8] 100 % of control | [9] 96 % of control | [10] 96 % of control

CCN(CC)P(=O)(NCCCl)OC (stereo not drawn)
inactive: endpoint: mean survival time, dose: 100.0 mg/kg/injection, schedule: Q01DX009 (ip), vehicle: DMSO 103 % of control

CCOC(=O)c1ccc(NC(=O)Nc2ccc(Cl)cc2Cl)cc1
inactive: endpoint: mean survival time, dose: 12.5 mg/kg/injection, schedule: Q01DX001 (ip), vehicle: saline with Tween-80 95 % of control | endpoint: mean survival time, dose: 12.5 mg/kg/injection, schedule: Q01DX009 (ip), vehicle: saline with Tween-80 91 % of control and 92 % of control | endpoint: mean survival time, dose: 25.0 mg/kg/injection, schedule: Q01DX001 (ip), vehicle: saline with Tween-80 93 % of control and 96 % of control | endpoint: mean survival time, dose: 25.0 mg/kg/injection, schedule: Q01DX009 (ip), vehicle: saline with Tween-80 88 % of control and 97 % of control | endpoint: mean survival time, dose: 25.0 mg/kg/injection, schedule: Q04DX002 (ip), vehicle: saline with Tween-80 95 % of control and 96 % of control | endpoint: mean survival time, dose: 25.0 mg/kg/injection, schedule: Q04DX003 (ip), vehicle: saline with Tween-80 86 % of control | endpoint: mean survival time, dose: 50.0 mg/kg/injection, schedule: Q01DX001 (ip), vehicle: saline with Tween-80 91 % of control | endpoint: mean survival time, dose: 50.0 mg/kg/injection, schedule: Q01DX009 (ip), vehicle: saline with Tween-80 88 % of control | endpoint: mean survival time, dose: 50.0 mg/kg/injection, schedule: Q04DX002 (ip), vehicle: saline with Tween-80 88 % of control and 96 % of control | endpoint: mean survival time, dose: 50.0 mg/kg/injection, schedule: Q04DX003 (ip), vehicle: saline with Tween-80 91 % of control | [13] 92 % of control | endpoint: mean survival time, dose: 200.0 mg/kg/injection, schedule: Q04DX002 (ip), vehicle: saline with Tween-80 88 % of control | [6] 89 % of control | endpoint: mean survival time, dose: 400.0 mg/kg/injection, schedule: Q04DX002 (ip), vehicle: saline with Tween-80 86 % of control

Nc1nc2c(ncn2C2OC(CO)C(O)C2O)c(=O)[n]1[Hg][c]1ccccc1 (stereo not drawn)
inactive: endpoint: median survival time, dose: 0.79 mg/kg/injection, schedule: Q01DX005 (ip), vehicle: saline 103 % of control | endpoint: median survival time, dose: 1.56 mg/kg/injection, schedule: Q01DX005 (ip), vehicle: saline 100 % of control | endpoint: median survival time, dose: 3.12 mg/kg/injection, schedule: Q01DX005 (ip), vehicle: saline 100 % of control | endpoint: median survival time, dose: 6.25 mg/kg/injection, schedule: Q01DX005 (ip), vehicle: saline 100 % of control | endpoint: median survival time, dose: 12.5 mg/kg/injection, schedule: Q01DX005 (ip), vehicle: saline 108 % of control

O=C(CC(NC(=O)OCc1ccccc1)c1nn[nH]n1)OCc1ccccc1 (stereo not drawn)
inactive: [5] 86 % of control | [6] 94 % of control | [7] 91 % of control

Cc1cc(C)c(NC(=O)c2ccccc2Cl)c(C)c1
inactive: [5] 97 % of control | [6] 110 % of control | [7] 97 % of control

COC(=O)/C=C(/Nc1ccccc1C(=O)O)C(=O)OC
inactive: [8] 89 % of control | [9] 101 % of control | [10] 90 % of control

O=C(Nc1cccc(O)c1)c1ccc([N+](=O)[O-])cc1
inactive: [4] 97 % of control | [11] 107 % of control | [12] 108 % of control

CC(C)(CO)C(O)C(=O)NC1CCCCC1 (stereo not drawn)
inactive: endpoint: mean survival time, dose: 100.0 mg/kg/injection, schedule: Q01DX001 (ip), vehicle: saline with Tween-80 98 % of control | [1] 102 % of control | [13] 102 % of control | [2] 100 % of control | endpoint: mean survival time, dose: 400.0 mg/kg/injection, schedule: Q01DX001 (ip), vehicle: saline with Tween-80 94 % of control | [3] 97 % of control
